Measurements from patent US20230227484A1, “PYRIMIDINE COMPOUND AS AXL INHIBITOR” (NANJING CHIA TAI TIANQING PHARMACEUTICAL CO., LTD., priority 2020, published 2023).

Assays:
[1] = system: human acute monocytic leukemia cell MV-4-11 xenograft tumor; assay: In-vivo efficacy of compound for MV4-11 xenograft tumor model of nude mouse; details: MV4-11, po
[2] = system: MV-4-11 (human myeloid monocytic leukemia cell line); assay: Proliferation inhibition activity of compounds to MV-4-11 cells (CellTiter-Glo); type: cell-based; details: MV4-11 cells, 72 h dosing
Protocol: MV-4-11 (human myeloid monocytic leukemia cell line, culture medium: JIMDM+10% fetal bovine serum) is purchased from Cobioer Biosciences Co., Ltd and cultured in a 5% C02 incubator at 37° C. The cells in a logarithmic growth phase are plated in a 96-well plate at cell densities of 8000 cells/well, 6000 cells/well, 2000 cells/well, 2000 cells/well and 3000 cells/well, and a blank control group is set at the same time.
A compound to be tested and the positive drug are dissolved in dimethyl sulfoxide to prepare a 10 mM stock solution, which is then stored in −80° C. refrigerator for long-time storage. After the cells are plated for 24 h, the 10 mM compound stock solution is diluted with dimethyl sulfoxide to obtain a working solution having a 200-fold concentration (the highest concentration is 200 or 2000 μM, a 3-fold gradient, a total of 10 concentrations), and 3 μL of the working solution of each concentration is added to 197 μL of complete medium, and diluted into a working solution of 3-fold concentration. 50 μL of the working solution is then taken and added to a 100 μL cell culture medium (a final concentration of dimethyl sulfoxide is 0.5%, v/v), and two complex holes are set for each concentration. After 72 h of dosing treatment, 50 μl of CellTiter-Glo® (purchased from Promega) is added to each well. Fluorescence signals are measured on Envision (PerkinElmer) according to an operating procedure of the specification. GraphPad Prism 5 software log(inhibitor) vs. response-Variable slope is used to fit a dose-response curve, so as to obtain the IC50 value of the compound to the inhibition of cell-proliferation. The calculation formulation of the inhibition rate is as follows: […]
wherein: signal value of subject: a mean fluorescence signal of cell+medium+compound group; signal value of blank group: a mean fluorescence signal of medium group (containing 0.5% DMSO); signal value of negative control group: a mean fluorescence signal of cell+medium group (containing 0.5% DMSO).

[3] = system: human acute monocytic leukemia cell MV-4-11 xenograft tumor; assay: In-vivo efficacy of compound for MV4-11 xenograft tumor model of nude mouse; details: MV4-11, po, intragastric 5 mg/kg/d, once a day, end of experiment, MV-4-11 xenograft nude mice; for response vs control in vivo at 5 mg/kg/day: read-out: Relative tumor proliferation rate (% T/C); for inhibition in vivo at 5 mg/kg/day: read-out: Tumor growth inhibition rate (TGI %)
Protocol: Inhibitory effects of a compound and a positive drug on the in-vivo tumor growth of a xenograft tumor model of a nude mouse on human acute monocytic leukemia cell MV-4-11 are tested.
MV-4-11 cells in a logarithmic growth phase are harvested, resuspended after cell counting, and adjusted in cell concentration to 7.0×10^7 cells/mL. The resuspended solution is injected into the right armpit of the nude mice subcutaneously. Each animal is inoculated with 200 μL (14×10^6 cells) of the suspended solution to establish a MV-4-11 xenograft tumor model. Afer the tumor volume reaches 100-300 mm^3, tumor-bearing mice in good health and similar tumor volume are selected.
The compound and the positive drug are vortexed with a suitable solvent and then ultrasonicated to completely dissolve the compound. Then, an appropriate volume of citric acid buffer is slowly added, and the mixed solution is vortexed to make the solution mixed uniformly to obtain administrative formulations having concentrations of 0.1, 0.5, and 1 mg-mL^−1.
Solvent control group: PEG400 & citric acid buffer (20:80, v:v).
The modeled mice are randomly divided into groups (n=6), and administrated with the relevant compounds and positive drugs on the day of grouping. After 21 days or after the tumor volume of the solvent control group reaches 2000 mm^3, the experiment is terminated (whichever reaches the index first), and the administration volume is 10 mL-kg^−1. Both the compound and the positive drug are administered by gavage, once a day. After the experiment starts, the tumor diameter and animal body weight are measured twice a week, and the tumor volume is calculated.
The tumor volume(TV) calculation formula is: tumor volume(mm^3)=l×w^2/2,
The calculation formula of relative tumor volume(RTV) is: RTV=TVt/TVinitial
The calculation formula of relative tumor proliferation rate (% T/C) is: % T/C=100%×(RTVT/RTVC)

AXL kinase = molecular target: T1, AXL kinase (Homo sapiens, UniProt P30530); assay: Inhibitory activity of compound against AXL kinase (HTRF KinEASE); type: biochemical; details: AXL enzyme (Carna, 08-107), ATP 15 μM; "<" means below detection limit of the test
T1 construct: purchased Carna 08-107
T1 sequence (P30530 473-894 limits assumed): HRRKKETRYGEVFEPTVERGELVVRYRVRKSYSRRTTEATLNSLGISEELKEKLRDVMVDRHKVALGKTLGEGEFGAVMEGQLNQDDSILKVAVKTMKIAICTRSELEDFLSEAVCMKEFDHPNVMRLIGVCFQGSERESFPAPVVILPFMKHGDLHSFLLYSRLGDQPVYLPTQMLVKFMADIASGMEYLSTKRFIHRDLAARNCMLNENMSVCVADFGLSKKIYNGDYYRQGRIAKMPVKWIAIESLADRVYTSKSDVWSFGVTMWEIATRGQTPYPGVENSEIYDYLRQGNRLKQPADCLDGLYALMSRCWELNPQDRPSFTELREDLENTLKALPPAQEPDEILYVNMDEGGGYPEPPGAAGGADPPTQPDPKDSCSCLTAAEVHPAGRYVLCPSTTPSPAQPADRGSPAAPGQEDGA
Summary of the method: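 AXL enzyme (final 0.016 ng/uL) was preincubated with compound (8 concentrations from 1 μM, ½ log steps) for 15 min at room temperature, then reacted with TK Substrate 3-biotin (final 1) and ATP (final 15 μM) for 45 min at 25° C. Phosphorylation was read by HTRF (TK antibody-cryptate, streptavidin-XL665, 1 h); IC50 from variable-slope dose-response fit.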

[4] = Pharmacokinetic study of compounds on ICR mice; type: in vivo; details: mouse, po, male ICR mice, plasma; for Cmax / Tmax / half-life: 10 mg-kg^1 by gavage; for AUC(0-t): 10 mg/kg-kg^1 by gavage, read-out: AUC0-24
Protocol: Each compound is prepared with DMSO into a 10 mg/mL stock solution.
Preparation of mixed solvent: Tween 80: PEG400: Water=1:9:90 (v/v/v)
450 μl of the compound DMSO stock solution with a concentration of 10 mg/nmL is accurately sucked into a glass bottle, and added with an appropriate volume of DMSO and mixed solvent, wherein a ratio of the solvent in the final formulation is DMSO: mixed solvent (v/v)=10:90. The mixed solution is vortexed (or ultrasonically treated), and dispersed uniformly to obtain 4.5 mL. administration test solutions with a concentration of 1 mg/nL, respectively.
Male 6-10 week old ICR mice (sourced from: Beijing Vital River Laboratory Animal Technology Co., Ltd.) are taken, 6 mice in each group. The mice are fasted overnight and fed 4 h after the administration. On the day of the experiment, the mice are administrated with 10 mg-kg^1 of compound test solution by gavage. After administration, about 100 μL of blood is harvested from the orbits of the mice at 0 min, 5 mmn, 15 mmn, 30 min, 14 h 2 h, 4 h, 8 h, and 24 h, and placed in EDTA-K2 anticoagulant tubes. The whole blood sample is centrifuged at 1500 to 1600 g for 10 mm, and the plasma obtained by separation is stored in a refrigerator at −40 to −20° C. for biological sample analysis. The blood drug concentration is determined by an LC-MS/MS method.
A non-compartmental model in Pharsight Phoenix 7.0 is used to calculate pharmacokinetic parameters. The specific results are shown in 5 the table below.

SMILES	IC50 [2]	IC50 (AXL kinase)	Cmax [4]	Tmax [4]	half-life [4]	AUC(0-t) [4]	inhibition in vivo at 20 mg/kg/day ([1]; intragastric 20 mg/kg/d, once a day, end of experiment, MV-4-11 xenograft nude mice, read-out: Tumor growth inhibition rate (TGI %))	response vs control in vivo at 20 mg/kg/day ([1]; read-out: Relative tumor proliferation rate (% T/C))	response vs control in vivo at 5 mg/kg/day [3]	inhibition in vivo at 5 mg/kg/day [3]
Clc1cnc(Nc2ccc3c(c2)CC[C@@H](N2CCCC2)CC3)nc1Nc1ccccc1-c1ncc[nH]1 [Example 18, (S)—N^4-(2-(1H-imidazol-2-yl)phenyl)-5-chloro-N^2-(7-(pyrrolidin-1-yl)-6,7,8,9-tetrahydro-5H-benzo[7]annulen-2-yl)pyrimidine-2,4-diamine]	–	0.19 nM	249 ng/mL	2 h	3.03 h	2300 ng·h/mL	–	–	37%	71%
CN1Cc2cccc(Nc3nc(Nc4ccc5c(c4)CC[C@@H](N4CCCC4)CC5)ncc3Cl)c2C1=O [Example 28, (S)-7-((5-chloro-2-(((7-(pyrrolidin-1-yl)-6,7,8,9-tetrahydro-5H-benzo[7]annulen-2-yl)amino))pyrimidin-4-yl)amino)-2-methylisoindolin-1-one]	–	0.31 nM	226 ng/mL	8 h	–	3000 ng·h/mL	–	–	5.9%	104%
CP(C)(=O)c1cc(Cl)ccc1Nc1nc(Nc2ccc3c(c2)CC[C@@H](N2CCCC2)CC3)ncc1Cl [Example 52]	5.32 nM	1.06 nM	429 ng/mL	0.5 h	2.42 h	1150 ng·h/mL	–	–	–	–
CP(C)(=O)c1cc(F)ccc1Nc1nc(Nc2ccc3c(c2)CC[C@@H](N2CCCC2)CC3)ncc1Cl [Example 51, (S)-(2-((5-chloro-2-((7-(pyrrolidin-1-yl)-6,7,8,9-tetrahydro-5H-benzo[7]annulen-2-yl)amino)pyrimidin-4-yl)amino)-5-fluorophenyl)dimethyl phosphine oxide]	4.53 nM	2.6 nM	419 ng/mL	0.5 h	2.17 h	1070 ng·h/mL	–	–	–	–

More lines, main results first:

IC50 [2]	IC50 (AXL kinase)	Cmax [4]	Tmax [4]	half-life [4]	AUC(0-t) [4]	SMILES	inhibition in vivo at 20 mg/kg/day ([1]; intragastric 20 mg/kg/d, once a day, end of experiment, MV-4-11 xenograft nude mice, read-out: Tumor growth inhibition rate (TGI %))	response vs control in vivo at 20 mg/kg/day ([1]; read-out: Relative tumor proliferation rate (% T/C))	response vs control in vivo at 5 mg/kg/day [3]	inhibition in vivo at 5 mg/kg/day [3]
208 nM	–	–	–	–	–	Nc1nc(Nc2ccc3c(c2)CC[C@@H](N2CCCC2)CC3)nn1-c1cc2c(nn1)-c1ccccc1CCC2 [Positive drug 1 (BGB324), BGB324]	32%	71%	–	–
12 nM	–	26.8 ng/mL	0.25 h	–	52.2 ng·h/mL	CN1CCN(Cc2ccc(Nc3ncc(Cl)c(Nc4ccccc4S(=O)(=O)N(C)C)n3)cc2)CC1 [Positive drug 2 (TP0903), TP0903, reference compound]	–	–	42%	62%
